Assay results taken from patent US10787432B2, “N-[(pyridyloxy)propanyl]benzamides” (Boehringer Ingelheim International GmbH, priority 2016, dated 2020).
Like-named read-outs stand apart in the source and are kept apart here.

Tests used:
[1] = Assay C: Metabolic stability in human liver microsomes (Human MST); type: in vitro ADME; details: pooled human liver microsomes, pH 7.6; human liver microsomes 1 mg/mL, compound 1 μM, 37° C., NADPH; read-out: Human MST t1/2
Experimental: C. Assessment of Metabolic Stability in Human Liver Microsomes (Human MST)
The metabolic stability of the compounds according to the invention may be investigated as follows:
The metabolic degradation of the test compound is assayed at 37° C. with pooled human liver microsomes. The final incubation volume of 100 μL per time point contains TRIS buffer pH 7.6 at room temperature (0.1 M), MgCl2 (5 mM), microsomal protein (1 mg/mL) and the test compound at a final concentration of 1 μM. Following a short pre-incubation period at 37° C., the reactions are initiated by addition of beta-nicotinamide adenine dinucleotide phosphate, reduced form (NADPH, 1 mM), and terminated by transferring an aliquot into solvent after different time points. After centrifugation (10000 g, 5 min), an aliquot of the supernatant is assayed by LC-MS/MS for the amount of parent compound. The half-life (t1/2) is determined by the slope of the semi-logarithmic plot of the concentration-time profile.

[2] = target: T1, human orexin 2 receptor (Homo sapiens, UniProt O43614); test: Assay B: In vitro testing of OX2R potency: OX2R IP1 (HTRF, CHO-K1/hOX2 cells, Orexin A as agonist); type: cell-based
T1 construct: stably expressing the full-length human orexin 2 receptor; expressed in transfected cells; host or cells: CHO-K1 (CHO-K1/hOX2), co-expressing aequorin
T1 sequence (O43614 1-444): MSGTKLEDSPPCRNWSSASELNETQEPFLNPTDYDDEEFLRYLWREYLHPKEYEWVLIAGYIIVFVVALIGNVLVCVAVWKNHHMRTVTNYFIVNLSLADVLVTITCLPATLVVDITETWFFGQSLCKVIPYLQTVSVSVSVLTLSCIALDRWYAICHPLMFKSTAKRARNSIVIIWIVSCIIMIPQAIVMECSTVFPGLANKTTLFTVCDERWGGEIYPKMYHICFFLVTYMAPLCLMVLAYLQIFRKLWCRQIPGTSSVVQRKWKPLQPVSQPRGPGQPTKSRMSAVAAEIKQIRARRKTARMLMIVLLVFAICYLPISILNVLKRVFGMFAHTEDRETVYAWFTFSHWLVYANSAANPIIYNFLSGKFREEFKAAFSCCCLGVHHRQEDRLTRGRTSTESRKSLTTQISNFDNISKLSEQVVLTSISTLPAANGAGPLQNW
Text: Activation of the orexin receptors expressed in cell lines results in an increase in intracellular IP3 concentration. IP1, a downstream metabolite of IP3, accumulates in cells following receptor activation and is stable in the presence of LiCl. Using Homogeneous Time-Resolved Fluorescence technology with Lumi4-Tb cryptate (commercially available from Cisbio Bioassay.) and a suitable fluorescence plate reader. […] Chem. Genomics 2009, 3, 22-32. This technique is used to characterize pharmacological modification of the orexin receptors.
B. In Vitro Testing of OX2R Potency: OX2R IP1
IP1 measurements are performed in CHO-K1 cells stably expressing the full-length human orexin 2 receptor and the aequorin photoprotein. Cells are cultivated in Ham's nutrient mixture F12 medium with 10% fetal calf serum, in a 37° C., 95% humidity and 5% CO2 incubator. The CHO-K1/hOX2 cell mass is expanded to larger cell numbers. The cells are obtained as frozen cells in cryo-vials and stored until use at −150° C. The viability of the cells after thawing is >90%. In preparation for the assay, 24 hours before the assay, the cells are thawed at 37° C. and immediately diluted with cell culture medium. After centrifugation, the cell pellet is resuspended in medium and then distributed into the assay plates with a density of 5000 cells/25 μL per well. The plates are incubated for one hour at room temperature to reduce edge effects before they are incubated for 24 hours at 37° C./5% CO2. Compounds are prepared by a 8-point serial dilution in DMSO and a final dilution step into assay buffer (HBSS with 20 mM HEPES, 0.1% BSA and 50 mM LiCl, pH 7.4) to ensure a final DMSO concentration of 1% in the assay.
On the day of the assay, cells in the plate are washed twice with 60 μL assay buffer (20 μL buffer remained in the wells after washing), followed by adding 5 μL per well of compounds diluted in assay buffer. After 15 minutes of incubation at room temperature 5 μL per well of Orexin A peptide (final concentration: 0.5 nM) dissolved in assay buffer is added to the assay plate. The assay plate is incubated for 60 minutes at 37° C. Then 5 μL per well of Anti-IP1-Cryptate Tb solution and 5 μL per well of IP1-d2 dilution are added to all well of the plate and the plate is incubated for a further 60 minutes light protected at room temperature. The emission at 615 nm and 665 nm (Excitation wavelength: 320 nm) are measured using an EnVision reader (PerkinElmer). The ratio between the emission at 665 nm and 615 is calculated by the reader.
8-point four parametric non-linear curve fitting and determination of IC50 values and Hill slopes is performed using a regular analysis software e.g. AssayExplorer (Accelrys). In order to establish an agonist concentration independent parameter, Kb values are calculated using the following equation: IC50/((2+(A/EC50)n)^1/n−1) (with A=concentration agonist, EC50=EC50 agonist, n=Hill slope agonist) (see P. Leff, I. G. Dougall, Trends Pharmacol. Sci. 1993, 14(4), 110-112).
Kb values from Assay A (OX1R) and Assay B (OX2R) can then provide a selectivity ratio which is independent of the agonist (Orexin A) concentration.

[3] = target: T2, human Orexin 1 receptor (Homo sapiens, UniProt O43613); test: Assay A: In vitro testing of OX1R potency: OX1R IP1 (HTRF, CHO-K1/hOX1 cells, Orexin A as agonist); type: cell-based
T2 construct: stably expressing the full-length human Orexin 1 receptor; expressed in transfected cells; host or cells: CHO-K1 (CHO-K1/hOX1), co-expressing aequorin
T2 sequence (O43613 1-425): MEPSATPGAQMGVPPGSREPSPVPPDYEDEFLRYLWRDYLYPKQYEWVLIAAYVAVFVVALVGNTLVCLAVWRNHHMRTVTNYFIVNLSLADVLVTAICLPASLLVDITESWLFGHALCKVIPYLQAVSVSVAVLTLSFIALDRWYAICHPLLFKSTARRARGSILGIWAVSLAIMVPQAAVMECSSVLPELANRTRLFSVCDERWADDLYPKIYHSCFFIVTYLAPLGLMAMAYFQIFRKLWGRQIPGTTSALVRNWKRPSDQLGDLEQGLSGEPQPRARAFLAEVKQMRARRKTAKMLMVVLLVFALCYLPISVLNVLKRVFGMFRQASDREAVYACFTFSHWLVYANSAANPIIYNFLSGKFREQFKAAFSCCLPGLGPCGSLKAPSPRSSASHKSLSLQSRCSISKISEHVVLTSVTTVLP

[4] = Orexin A 50 nM, read-out: OX1R Kb (Orexin A concentration used)
[5] = Orexin A 0.5 nM, read-out: OX1R Kb (Orexin A concentration used)

SMILES	half-life at 1 μM [1]	Kb ([2]; Orexin A 0.5 nM)	OX2R Kb/OX1R Kb ([3]; OX1R Kb at 50 nM Orexin A)	Kb [3, 4]	OX2R Kb/OX1R Kb ([3]; OX1R Kb at 0.5 nM Orexin A)	Kb [3, 5]	Kb [2]	Kb [3]
CCN(C(=O)c1cc(OC)ccc1-n1nccn1)[C@@H](C)COc1ccc(Cl)cn1 [Example 33]	20 min	33 nM	236	0.14 nM	–	–	–	–
CCN(C(=O)c1cc(F)c(F)cc1-n1nccn1)[C@@H](C)COc1ccc(C(F)(F)F)cn1 [Example 4]	61 min	138 nM	187	0.74 nM	276	0.5 nM	–	–
CCN(C(=O)c1ccccc1-n1nccn1)[C@@H](C)COc1ncc(C(F)(F)F)cc1F [Example 47]	21 min	87 nM	272	0.32 nM	130	0.67 nM	–	–
CCN(C(=O)c1cccc(F)c1-c1nnc(C)o1)[C@@H](C)COc1ccc(Cl)cn1 [Example 36]	72 min	542 nM	–	–	139	3.9 nM	–	–
CCN(C(=O)c1ccccc1-c1ncccn1)[C@@H](C)COc1ccc(C(F)(F)F)cn1 [Example 102]	36 min	27 nM	1080	0.025 nM	–	–	–	–
CCN(C(=O)c1ccccc1-c1cnn(C)c1)[C@@H](C)COc1ncc(C(F)(F)F)cc1F [Example 132]	11 min	152 nM	–	–	89	1.7 nM	–	–
CCN(C(=O)c1cc(C#N)ccc1-n1nccn1)[C@@H](C)COc1ncc(C(F)(F)F)cc1F [Example 57]	> 130 min	203 nM	214	0.95 nM	–	–	–	–
CCN(C(=O)c1ccc(Cl)cc1-n1nccn1)[C@@H](C)COc1ccc(Cl)cn1 [Example 45]	18 min	21 nM	59	0.354 nM	–	–	–	–
CCN(C(=O)c1cccc(F)c1-n1nccn1)[C@@H](C)COc1ccc(F)c(C(F)(F)F)n1 [Example 133]	21 min	–	–	–	63	–	101 nM	1.6 nM
CCN(C(=O)c1c(-n2nccn2)ccc(C)c1F)[C@@H](C)COc1ccc(C(F)(F)F)cn1 [Example 92]	18 min	16 nM	640	0.025 nM	–	–	–	–
CCN(C(=O)c1cc(F)c(F)cc1-n1nccn1)[C@@H](C)COc1ncc(C(F)(F)F)cc1F [Example 52]	38 min	538 nM	–	–	256	2.1 nM	–	–
CCN(C(=O)c1cccc(C)c1-c1nnc(C)o1)[C@@H](C)COc1ncc(C(F)(F)F)cc1F [Example 64]	15 min	155 nM	705	0.22 nM	–	–	–	–
